What all share (assay): NCI tumour cell line growth inhibition, 48 h
The test system of assay [1] is SF-539 CNS.
The subject of assay [2] is A498 renal.
Assay [3] concerns NCI-H522 lung.
The subject of assay [4] is SK-OV-3 ovarian.
For assay [5], the system named is NCI-H23 lung.
The test system of assay [6] is CCRF-CEM leukemia.
Assay [7] concerns SK-MEL-2 melanoma.
The subject of assay [8] is K-562 leukemia.
Assay [9] concerns SF-295 CNS.
For assay [10], the system named is HT29 colon.
Assay [11] deals with BT-549 breast.
Assay [12] relates to OVCAR-8 ovarian.
In assay [13] the test system is T-47D breast.
In assay [14] the test system is MCF7 breast.
Assay [15] concerns CAKI-1 renal.
The subject of assay [16] is SK-MEL-28 melanoma.
Assay [17] concerns IGROV1 ovarian.
The test system of assay [18] is SNB-19 CNS.
Assay [19] has as its system KM12 colon.
Assay [20] relates to HCT-116 colon.

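Tested at 5 concentrations; 48 h exposure; 96-well plates; endpoints linearly interpolated, else capped at highest concentration. Definition used: TGI = concentration required for complete inhibition of growth.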

Regarding `O=C1OCC/C1=C/c1ccc(N=Nc2c(O)ccc3ccccc23)cc1`, the TGI was 36.6 µM in assay [1]; 34.2 µM in assay [2]; 41.8 µM in assay [3]; 55.3 µM in assay [4]; 44.8 µM in [5]; 53.5 µM in [6]. The TGI was 55.2 µM in assay [7]; above 100 µM in assay [8]; 47.8 µM in [9]; 35 µM in assay [10]; 49.9 µM in [11]; 72 µM in [12]. Also, the TGI in assay [13] was above 100 µM; in assay [14] it was above 100 µM; in assay [15], 34.8 µM; in [16] it was 38.4 µM; in [17], 54.7 µM; in assay [18] it was above 100 µM. Moreover, the TGI in [19] was found to be 22.3 µM; in assay [20], 34.6 µM.

As to `Nc1nc(N)c2[nH]cnc2n1` (tested in a mixture with another compound), the TGI in assay [1] was above 100 µM; in [2], 45.1 µM; in assay [3] it was 54.2 µM; in [4], above 100 µM; in assay [5], 77.5 µM; in assay [6] it was above 100 µM. In addition, the TGI in assay [7] was 77.5 µM; in [8], above 100 µM; in [9], above 100 µM; in [10], above 100 µM; in assay [11], above 100 µM; in assay [12], above 100 µM. In addition, the TGI in assay [13] was 40 µM; in assay [14], 21.7 µM; in assay [15], above 100 µM; in assay [16], above 100 µM; in assay [17] it was above 100 µM; in [18], above 100 µM. Also, the figures for the TGI in assay [19] and in [20] were above 100 µM and 41.8 µM, respectively.

`CC(CCC(=O)O)C1CCC2C3C(O)CC4CC(O)CCC4(C)C3CC(O)C12C` (stereo not given): the TGI in assay [1], in assay [2], in [3], in assay [4], in assay [5] and in assay [6] was above 100 µM throughout. Further, the TGI in assay [7], in assay [8], in assay [9], in assay [10], in assay [11] and in [12] was above 100 µM each time. Also, the TGI in assay [13], in assay [14], in assay [15], in assay [16], in assay [17] and in assay [18] was above 100 µM each time. The TGI in [19] and in assay [20] was above 100 µM throughout.

As to `Cc1cc2nc(-c3c(F)cccc3F)n(Cc3c(F)cccc3F)c2cc1C`, the TGI in [1] was 34.3 µM; in [2] it was 39.9 µM; in assay [3] it was 27.1 µM; in assay [4] it was 42.2 µM; in [5] it was 39.9 µM; in [6] it was 60.9 µM. In addition, the TGI in assay [7] was 29.6 µM; in assay [8] it was 42.8 µM; in [9], 27.9 µM; in assay [10], 34 µM; in assay [11] it was 27.9 µM; in assay [12], 29.5 µM. Further, the TGI came to 47.2 µM in assay [13]; 57.1 µM in [14]; 37.7 µM in assay [15]; 42.2 µM in [16]; 28.4 µM in assay [17]; 42.7 µM in assay [18]. Also, the TGI was determined as 28.6 µM in assay [19] and 24.4 µM in assay [20].

With `COC1=CC(=O)c2c(O)c3c(c(O)c2C1=O)C=C(C)OC3O` (stereo not given), the TGI stood at 3.4 µM in assay [1]; 4.91 µM in assay [2]; 3.95 µM in assay [3]; 23.7 µM in assay [4]; 2.25 µM in assay [5]; 16.1 µM in assay [6]. Further, the TGI in [7] worked out at 5.19 µM; in assay [8] it was 5.07 µM; in assay [9], 5.06 µM; in [10], 2.7 µM; in assay [11], 3.5 µM; in [12] it was 2.82 µM. The TGI in [13] was determined as 7.05 µM; in [14], 1.57 µM; in [15], 14.5 µM; in assay [16] it was 3.65 µM; in assay [17], 5.57 µM; in assay [18], 7.12 µM. For the same compound, the TGI in [19] is 12.2 µM; in assay [20], 2.3 µM.

Source of the values: PubChem BioAssay (NCI).
